Experimental data from paper PMC4105567, “Aurora Kinases as Druggable Targets in Pediatric Leukemia: Heterogeneity in Target Modulation Activities and Cytotoxicity by Diverse Novel Therapeutic Agents” (PLoS ONE, 2014).

What was measured:
Type in all cases: cell-based, human
[1] = test system: Patient #2 relapsed AML primary leukemia cells; test: Cytotoxicity assay, primary sample Patient #2; conditions: four days in culture, Alamar blue assay or automated microscopy, one complete study
Protocol: (§1) These include B-ALL (Patient #1), relapsed AML (Patient #2), AML/CML (Patient #3), infant ALL (Patient #4), and initial ALL presenting with secondary AML (Patient #5). […] The diluted sample was then layered on a Ficoll-Paque (GE Healthcare, Piscataway, New Jersey) gradient at a 1∶2 ratio of Ficoll to diluted sample. Samples were then centrifuged 1800 rpm for 20 minutes at room temperature. The buffy coat was removed with a pipette and transferred to a new centrifuge tube and diluted with PBS. After an additional centrifugation at 1200 rpm, the white blood cell pellet was washed with PBS and centrifuged one last time. Cells were re-suspended in Opti-MEM and viable cells were counted using trypan blue (Invitrogen, Life Technologies Corporation, Burlington, Ontario) exclusion on a haemocytometer. An identical protocol was followed for the isolation of white blood cells, referred to as “normal lymphocytes” in the following paragraphs, from healthy volunteers. Samples grown in culture for up to six months were cultured in Opti-MEM medium supplemented with 10% heat inactivated FBS, penicillin/streptomycin and 2-mercaptoethanol.
(§2) For cytotoxicity profiling of Aurora kinase inhibitors against leukemia cell lines, inhibitors or vehicle control (DMSO, Sigma-Aldrich) were diluted in 100 µl of Opti-MEM per well in 96 well plates (Grenier Bio-One, Monroe, North Carolina) in triplicate at final concentrations ranging from 1×10^−6 to 10 µM. 1×10^4 cells per well were seeded and plates were incubated for 4 days. Following incubation for 4 days, cell survival was quantified by Alamar blue assay (Invitrogen) or automated inverted microscopy using the Celigo Cell Cytometer (Cyntellect, San Diego, California). […] During this period of incubation, the absorbance at 570–620 nm was measured (Opsys MR Plate Reader, Dynex Technologies, Chantilly, Virginia) at various time points, depending on the cell line or sample. Percent survival was calculated by comparing the absorbance ratio of the test well to the control well multiplied by 100%, as indicated in the following formula: […]
(§3) For automated inverted microscopy, the number of cells in each well was determined using the direct cell counting application as described previously. Briefly, following adjustment of image acquisition settings for bright-field imaging, the wells containing cells and appropriate dilutions of inhibitors were individually scanned. Based on these images, analysis parameters, including intensity threshold and cell diameter, were modified for optimal inclusion of viable cells in treated and control wells. These parameters were applied for subsequent replicates involving the same leukemia cell line or sample. The percent survival was then calculated as a ratio of the number of cells in treated wells to the number of cells in control wells multiplied by 100%. Given that Aurora kinase inhibitors interfere with cytokinesis, cells that are committed to death may still contain enlarging but intact cytoplasmic content before the eventual loss of cytoplasmic membrane integrity. The accuracy of Alamar blue assay may be, in theory, affected by the timing of these events.

[2] = test system: B1 B-ALL cell line; test: Cytotoxicity assay, B1; conditions: four days in culture, Alamar blue assay or automated microscopy, ± SD, three experiments
Protocol: (§4) Cell lines were cultured in Opti-MEM medium (Gibco, Life Technologies Corporation, Burlington, Ontario) supplemented with 10% heat inactivated fetal bovine serum (FBS) (Gibco), 100 units/ml penicillin and 100 units/ml streptomycin (Gibco) and 0.05 mM 2-mercaptoethanol (Sigma-Aldrich, Oakville, Ontario) in T25 flasks (Nalge Nunc, Rochester, New York) or T75 flasks (Corning Incorporated, Corning, New York). All cell cultures were maintained at 37°C in a humidified incubator with 5% CO2.
as §2, §3

[3] = test system: Molm13 AML cell line; test: Cytotoxicity assay, Molm13; conditions: four days in culture, Alamar blue assay or automated microscopy, ± SD, three experiments
Protocol: as §4, §2, §3

[4] = test system: Patient #4 infant leukemia primary cells; test: Cytotoxicity assay, primary sample Patient #4; conditions: four days in culture, Alamar blue assay or automated microscopy, one complete study
Protocol: as §1, §2, §3

[5] = test system: C1 B-ALL cell line; test: Cytotoxicity assay, C1; conditions: four days in culture, Alamar blue assay or automated microscopy, ± SD, three experiments
Protocol: as §4, §2, §3

[6] = test system: TIB-202 AML cell line; test: Cytotoxicity assay, TIB-202; conditions: AML cell line TIB-202, four days in culture, Alamar blue assay or automated microscopy, ± SD, three experiments
Protocol: as §4, §2, §3

[7] = test system: HL-60 RA APML cell line; test: Cytotoxicity assay, HL-60 RA; conditions: APML cell line HL-60 RA, four days in culture, Alamar blue assay or automated microscopy, ± SD, three experiments
Protocol: as §4, §2, §3

[8] = test system: Nalm6 B-ALL cell line; test: Cytotoxicity assay, Nalm6; conditions: four days in culture, Alamar blue assay or automated microscopy, ± SD, three experiments
Protocol: as §4, §2, §3

[9] = test system: normal cells versus leukemia cell lines; test: Comparison of cytotoxicity IC50 values, normal cells versus leukemia cell lines; conditions: normal lymphocytes and bone marrow stroma versus leukemia cell lines of Table 2
Protocol: as §2, §3

[10] = test system: Bone Marrow Stroma; test: Cytotoxicity assay, bone marrow stroma; conditions: bone marrow stroma (control for non-leukemia cytotoxicity), four days in culture, ± SD, three experiments
Protocol: as §2, §3

[11] = test system: HL-60 APML cell line; test: Cytotoxicity assay, HL-60; conditions: APML cell line HL-60, four days in culture, Alamar blue assay or automated microscopy, ± SD, three experiments
Protocol: as §4, §2, §3

[12] = test system: Patient #1 B-ALL primary leukemia cells; test: Cytotoxicity assay, primary sample Patient #1; conditions: four days in culture, Alamar blue assay or automated microscopy, one complete study
Protocol: as §1, §2, §3

Structure (SMILES) | IC50 ([1]; Homo sapiens, 96 h) [nM] | IC50 ([2]; Homo sapiens, 96 h) [nM] | IC50 ([3]; Homo sapiens, MOLM-13, 96 h) [nM] | IC50 ([4]; Homo sapiens, 96 h) [nM] | IC50 ([5]; Homo sapiens, 96 h) [nM] | IC50 ([6]; Homo sapiens, 96 h) [nM] | IC50 ([7]; Homo sapiens, 96 h) [nM] | IC50 ([8]; Homo sapiens, NALM-6, 96 h) [nM] | IC50 values for the normal cells compared with IC50 values for the leukemia cell lines (potential therapeutic window) [9] | IC50 ([10]; Homo sapiens, 96 h) [nM] | IC50 ([11]; Homo sapiens, 96 h) [nM] | IC50 ([12]; Homo sapiens, 96 h) [nM] | also measured
O=C(Nc1c[nH]nc1-c1nc2ccc(CN3CCOCC3)cc2[nH]1)NC1CC1 [AT9283] | 80 | 60 ± 30 | 5 ± 3 | 5000 | 0.6 | 800 ± 200 | 3 ± 2 | 6 ± 3 | higher than the IC50 values for the leukemia cell lines | 5000 ± 2000 | 50 ± 20 | 3 | 
CCN1CCN(C(=O)Cc2ccc(Nc3ncc(F)c(Nc4ccc(C(=O)Nc5ccccc5Cl)cc4)n3)cc2)CC1 [Aurora A Inhibitor I] |  |  |  |  |  |  |  |  | lower than the IC50 values for the normal cells, but not as pronounced |  |  |  | IC50 [1]: 1000 nM; IC50 [2]: 700 ± 100 nM; IC50 [3]: 2000 ± 1000 nM; IC50 [4]: 8000 nM; IC50 [5]: 900 ± 200 nM; IC50 [6]: 5 ± 2 nM; IC50 [7]: 1000 ± 600 nM; IC50 [8]: 400 ± 80 nM; IC50 [10]: 4000 ± 500 nM; IC50 [11]: 2000 ± 1000 nM; IC50 [12]: 800 nM
CCS(=O)(=O)Nc1ccc2c(c1)/C(=C(/Nc1ccc(CN3CCCCC3)cc1)c1ccccc1)C(=O)N2 [Hesperadin] | 0.3 | 0.007 | 0.3 | 2000 | 0.06 | 0.003 | 0.05 | 0.004 | higher than the IC50 values for the leukemia cell lines | 2000 ± 900 | 6 ± 3 | 0.04 | 
